Measurements as given in ChEMBL document CHEMBL3769346, “Synthesis and SAR of calcitonin gene-related peptide (CGRP) antagonists containing substituted aryl-piperazines and piperidines” (Bioorg Med Chem Lett, 2016).
Activity calls are given as the source filed them. The rule behind the calls is not given here.

Experiments:
[1] = target: CGRP receptor (CALCRL/RAMP1) (Homo sapiens); assay: Displacement of [125I]CGRP from CGRP receptor in human SK-N-MC cells after 2 hrs by scintillation counter
[2] = Permeability of compound by PAMPA; type: ADME; conditions: read-out: permeability
[3] = Permeability of compound across apical to basolateral side in human Caco2 cells; type: ADME, cell-based; conditions: Caco-2, read-out: permeability
[4] = tested on: CGRP receptor (CALCRL/RAMP1) (Homo sapiens); assay: Antagonist activity at CGRP receptor (unknown origin)

Row | SMILES | IC50 [1] | Papp [2] | Papp A→B [3] | Activity [4]
1 | Cc1cc(C[C@@H](NC(=O)N2CCC(c3ccccc3)CC2)C(=O)N2CCC(N3CCCCC3)CC2)cc2cn[nH]c12 | 0.46 µM |  |  | 
2 | Cc1ccc(C2CCN(C(=O)N[C@H](Cc3cc(C)c4[nH]ncc4c3)C(=O)N3CCC(N4CCCCC4)CC3)CC2)cc1 | 0.24 µM |  |  | 
3 | Cc1ccccc1C1CCN(C(=O)N[C@H](Cc2cc(C)c3[nH]ncc3c2)C(=O)N2CCC(N3CCCCC3)CC2)CC1 | 0.17 µM |  |  | 
4 | Cc1cc(C[C@@H](NC(=O)N2CCC(N3Cc4cccc(F)c4NC3=O)CC2)C(=O)N2CCC(N3CCCCC3)CC2)cc2cn[nH]c12 |  |  | < 1.5 ×10⁻⁶ cm/s | 
5 | Cc1cc(C[C@@H](NC(=O)N2CCC(c3ccc(C(F)(F)F)cc3C(F)(F)F)CC2)C(=O)N2CCC(N3CCCCC3)CC2)cc2cn[nH]c12 |  | 7.1 ×10⁻⁶ cm/s | < 1.5 ×10⁻⁶ cm/s | 
6 | Cc1cc(C[C@@H](NC(=O)N2CCN(c3ccccc3F)CC2)C(=O)N2CCC(N3CCCCC3)CC2)cc2cn[nH]c12 | 0.13 µM |  |  | 
7 | Cc1cc(C[C@@H](NC(=O)N2CCN(c3ccc(C#N)cc3)CC2)C(=O)N2CCC(N3CCCCC3)CC2)cc2cn[nH]c12 | 0.099 µM |  |  | 
8 | Cc1cc(C[C@@H](NC(=O)N2CCC(c3cccc(Br)c3)CC2)C(=O)N2CCC(N3CCCCC3)CC2)cc2cn[nH]c12 | 0.13 µM |  |  | 
9 | Cc1cc(C[C@@H](NC(=O)N2CCC(c3cccc(Cl)c3)CC2)C(=O)N2CCC(N3CCCCC3)CC2)cc2cn[nH]c12 | 0.15 µM |  |  | 
10 | Cc1cccc(C2CCN(C(=O)N[C@H](Cc3cc(C)c4[nH]ncc4c3)C(=O)N3CCC(N4CCCCC4)CC3)CC2)c1F | 0.12 µM |  |  | 
11 | Cc1cc(C[C@@H](NC(=O)N2CCC(c3ccccc3F)CC2)C(=O)N2CCC(N3CCCCC3)CC2)cc2cn[nH]c12 | 0.17 µM |  |  | 
12 | Cc1cc(C[C@@H](NC(=O)N2CCN(c3ccc(F)c(F)c3)CC2)C(=O)N2CCC(N3CCCCC3)CC2)cc2cn[nH]c12 | 0.097 µM |  |  | 
13 | COC(=O)c1ccccc1N1CCN(C(=O)N[C@H](Cc2cc(C)c3[nH]ncc3c2)C(=O)N2CCC(N3CCCCC3)CC2)CC1 | 0.11 µM |  |  | 
14 | Cc1cc(C[C@@H](NC(=O)N2CCC(c3cccc4ccccc34)CC2)C(=O)N2CCC(N3CCCCC3)CC2)cc2cn[nH]c12 | 0.43 µM |  |  | 
15 | Cc1cc(C[C@@H](NC(=O)N2CCC(c3ccc4ccccc4c3)CC2)C(=O)N2CCC(N3CCCCC3)CC2)cc2cn[nH]c12 |  | 6.1 ×10⁻⁶ cm/s | < 1.5 ×10⁻⁶ cm/s | 

More lines, in order of falling IC50 [1], values ahead:

Row | IC50 [1] | Papp [2] | Papp A→B [3] | Activity [4] | SMILES
16 | 0.092 µM |  |  |  | Cc1cc(C[C@@H](NC(=O)N2CCC(c3ccc(F)cc3F)CC2)C(=O)N2CCC(N3CCCCC3)CC2)cc2cn[nH]c12
17 | 0.077 µM |  |  |  | Cc1cc(C[C@@H](NC(=O)N2CCN(c3ccc(Cl)cc3)CC2)C(=O)N2CCC(N3CCCCC3)CC2)cc2cn[nH]c12
18 | 0.046 µM |  |  |  | Cc1cc(C[C@@H](NC(=O)N2CCN(c3ccc(-c4ccccc4)cc3)CC2)C(=O)N2CCC(N3CCCCC3)CC2)cc2cn[nH]c12
19 | 0.044 µM |  |  |  | Cc1cc(C[C@@H](NC(=O)N2CCN(c3ccccc3)CC2)C(=O)N2CCC(N3CCCCC3)CC2)cc2cn[nH]c12
20 | 0.044 µM |  |  |  | CCOC(=O)c1ccc(N2CCN(C(=O)N[C@H](Cc3cc(C)c4[nH]ncc4c3)C(=O)N3CCC(N4CCCCC4)CC3)CC2)cc1
21 | 0.041 µM |  |  |  | Cc1cc(C[C@@H](NC(=O)N2CCC(c3ccc(Cl)cc3)CC2)C(=O)N2CCC(N3CCCCC3)CC2)cc2cn[nH]c12
22 | 0.034 µM |  |  |  | Cc1cc(C[C@@H](NC(=O)N2CCN(c3ccc(S(C)(=O)=O)cc3F)CC2)C(=O)N2CCC(N3CCCCC3)CC2)cc2cn[nH]c12
23 | 0.033 µM | 5.2 ×10⁻⁶ cm/s | < 1.5 ×10⁻⁶ cm/s | Active | Cc1cc(C[C@@H](NC(=O)N2CCN(c3ccc(Br)cc3)CC2)C(=O)N2CCC(N3CCCCC3)CC2)cc2cn[nH]c12
24 | 0.019 µM | 5.2 ×10⁻⁶ cm/s |  | Active | Cc1cc(C[C@@H](NC(=O)N2CCN(c3cccc(Cl)c3)CC2)C(=O)N2CCC(N3CCCCC3)CC2)cc2cn[nH]c12
25 | 0.016 µM | 12 ×10⁻⁶ cm/s | < 1.5 ×10⁻⁶ cm/s | Active | Cc1ccc(C2CCN(C(=O)N[C@H](Cc3cc(C)c4[nH]ncc4c3)C(=O)N3CCC(N4CCCCC4)CC3)CC2)c(Cl)c1
26 | 0.013 µM |  |  |  | Cc1cc(C[C@@H](NC(=O)N2CCC(c3ccc(Br)cc3)CC2)C(=O)N2CCC(N3CCCCC3)CC2)cc2cn[nH]c12
27 | 0.012 µM | 3.5 ×10⁻⁶ cm/s | 5.6 ×10⁻⁶ cm/s | Active | Cc1cc(C[C@@H](NC(=O)N2CCN(c3ccccc3Br)CC2)C(=O)N2CCC(N3CCCCC3)CC2)cc2cn[nH]c12
28 | 0.012 µM |  |  |  | Cc1cc(C[C@@H](NC(=O)N2CCN(c3ccc(Cl)c(Cl)c3)CC2)C(=O)N2CCC(N3CCCCC3)CC2)cc2cn[nH]c12
29 | 0.0098 µM |  |  |  | Cc1cc(C[C@@H](NC(=O)N2CCC(c3ccccc3Cl)CC2)C(=O)N2CCC(N3CCCCC3)CC2)cc2cn[nH]c12
30 | 0.0089 µM |  |  |  | Cc1cc(C[C@@H](NC(=O)N2CCN(c3ccccc3C#N)CC2)C(=O)N2CCC(N3CCCCC3)CC2)cc2cn[nH]c12
31 | 0.007 µM |  |  |  | Cc1cc(C[C@@H](NC(=O)N2CCN(c3ccc(S(C)(=O)=O)cc3Cl)CC2)C(=O)N2CCC(N3CCCCC3)CC2)cc2cn[nH]c12
32 | 0.0043 µM | 17 ×10⁻⁶ cm/s | < 1.5 ×10⁻⁶ cm/s | Active | Cc1cc(C[C@@H](NC(=O)N2CCN(c3ccc(Cl)cc3Cl)CC2)C(=O)N2CCC(N3CCCCC3)CC2)cc2cn[nH]c12
33 | 0.0029 µM |  |  |  | Cc1cc(C[C@@H](NC(=O)N2CCN(c3ccc(F)cc3S(C)(=O)=O)CC2)C(=O)N2CCC(N3CCCCC3)CC2)cc2cn[nH]c12
34 | 0.0011 µM | 2.4 ×10⁻⁶ cm/s | < 1.5 ×10⁻⁶ cm/s | Active | Cc1cc(C[C@@H](NC(=O)N2CCC(c3ccc(Cl)cc3Cl)CC2)C(=O)N2CCC(N3CCCCC3)CC2)cc2cn[nH]c12
35 | 0.00023 µM | 5.7 ×10⁻⁶ cm/s | < 1.5 ×10⁻⁶ cm/s | Active | Cc1cc(C[C@@H](NC(=O)N2CCC(c3cc4ccccc4cc3Cl)CC2)C(=O)N2CCC(N3CCCCC3)CC2)cc2cn[nH]c12
36 | 0.00011 µM |  |  |  | Cc1cc(C[C@@H](NC(=O)N2CCC(c3cc4ccccc4cc3C#N)CC2)C(=O)N2CCC(N3CCCCC3)CC2)cc2cn[nH]c12
